Assay results: patent US20040224958A1, “Pyridopyrimidinone derivatives for treatment of neurodegenerative disease” (priority 2000, published 2004)
Like-named read-outs stand apart in the source and are kept apart here.

Key:
cdk4/D = cdk4/D (Homo sapiens, UniProt P11802); assay: Cyclin-Dependent Kinase 4 (cdk4) Assay; type: biochemical; conditions: read-out: cdk4/D IC50
Cdk5/p25 = Cdk5/p25 (Homo sapiens, UniProt Q00535); assay: Cyclin-Dependent Kinase 5 High Throughput Screening (cdk5-HTS) Assay; type: biochemical; conditions: high throughput screen
Method in brief: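 IC50 determined from 33P incorporation into GST-RbCOOH captured on glutathione plates and read by scintillation counting. Reaction: 1.0 μg/mL Cdk5/p25, 20 μM [γ33P]ATP, pH 7.4 Tris buffer with MgCl2 and DTT, 30 min at room temperature, stopped with EDTA.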

cdk2/cyclinE = cdk2/cyclinE (Homo sapiens, UniProt P24941); assay: Cyclin-Dependent Kinase Assay cdk2/cyclinE
cdk2/cyclinA = cdk2/cyclinA (Homo sapiens, UniProt P24941); assay: Cyclin-Dependent Kinase Assay cdk2/cyclinA
cdc2/cyclinB = cdc2/cyclinB (Homo sapiens, UniProt P06493); assay: Cyclin-Dependent Kinase Assay cdc2/cyclinB
Chain of cdc2/cyclinB (P06493 whole entry): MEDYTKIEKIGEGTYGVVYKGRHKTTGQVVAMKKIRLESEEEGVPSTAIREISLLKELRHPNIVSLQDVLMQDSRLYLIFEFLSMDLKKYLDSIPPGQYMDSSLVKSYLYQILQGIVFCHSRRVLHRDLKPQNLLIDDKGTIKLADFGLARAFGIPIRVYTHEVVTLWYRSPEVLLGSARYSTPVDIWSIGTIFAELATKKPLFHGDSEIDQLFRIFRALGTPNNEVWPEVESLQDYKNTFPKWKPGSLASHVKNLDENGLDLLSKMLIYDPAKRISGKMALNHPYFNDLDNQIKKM
Chain of cdc2/cyclinB (P14635 whole entry, further chain): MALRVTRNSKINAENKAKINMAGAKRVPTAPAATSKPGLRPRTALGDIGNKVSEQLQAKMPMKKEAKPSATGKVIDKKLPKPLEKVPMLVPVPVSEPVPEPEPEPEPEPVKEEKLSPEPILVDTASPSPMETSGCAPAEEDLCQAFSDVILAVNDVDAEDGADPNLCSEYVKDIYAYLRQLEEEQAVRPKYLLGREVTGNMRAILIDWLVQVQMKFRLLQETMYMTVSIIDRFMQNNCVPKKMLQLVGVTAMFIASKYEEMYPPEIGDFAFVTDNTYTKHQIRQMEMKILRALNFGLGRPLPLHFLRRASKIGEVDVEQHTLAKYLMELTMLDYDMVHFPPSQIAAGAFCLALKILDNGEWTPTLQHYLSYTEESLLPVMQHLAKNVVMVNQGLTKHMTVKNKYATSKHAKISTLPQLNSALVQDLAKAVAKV

Chain of cdk4/D (P11802 whole entry): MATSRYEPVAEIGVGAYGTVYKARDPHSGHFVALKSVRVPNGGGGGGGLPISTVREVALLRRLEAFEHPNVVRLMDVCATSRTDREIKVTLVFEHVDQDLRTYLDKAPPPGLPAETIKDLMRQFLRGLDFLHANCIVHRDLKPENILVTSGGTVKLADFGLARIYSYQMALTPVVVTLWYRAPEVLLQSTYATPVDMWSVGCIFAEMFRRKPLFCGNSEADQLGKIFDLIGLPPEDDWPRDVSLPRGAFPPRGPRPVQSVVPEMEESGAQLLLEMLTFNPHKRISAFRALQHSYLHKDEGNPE
Chain of cdk4/D (P24385 whole entry, further chain): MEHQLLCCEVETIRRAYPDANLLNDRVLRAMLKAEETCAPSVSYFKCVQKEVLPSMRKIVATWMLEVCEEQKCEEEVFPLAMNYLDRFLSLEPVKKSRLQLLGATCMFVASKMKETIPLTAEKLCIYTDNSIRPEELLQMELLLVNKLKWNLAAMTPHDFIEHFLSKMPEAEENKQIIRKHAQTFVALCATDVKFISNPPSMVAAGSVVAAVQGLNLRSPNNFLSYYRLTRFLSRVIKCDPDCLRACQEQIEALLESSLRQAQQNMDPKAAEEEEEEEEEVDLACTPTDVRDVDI

Row | IC50 (cdk4/D) [nM] | IC50 (Cdk5/p25) [nM] | IC50 (cdk2/cyclinE; cdk2/E IC50) [nM] | IC50 (cdk2/cyclinA; cdk2/A IC50) [nM] | IC50 (cdc2/cyclinB) [nM] | Compound | IC50 (cdk2/cyclinE; read-out: cdk2/E IC50) [nM] | IC50 (cdk2/cyclinA; read-out: cdk2/A IC50) [nM] | IC50 (cdc2/cyclinB; read-out: cdk1/B IC50) [nM]
1 | 550 | 130 | 130 | 270 | 79 | CC1Nc2ccc(Nc3ncc4ccc(=O)n(CC5CC5)c4n3)cc2C1C (stereo not shown) [Example 580, 8-Cyclopropylmethyl-2-(2,3-dimethyl-2,3-dihydro-1H-indol-5ylamino)-8H-pyrido[2,3-d]pyrimidin-7-one] | – | – | –
2 | 190 | 100 | – | – | – | 2-(3-Chloro-4-iodo-phenylamino)-8-propyl-8H-pyrido[2,3-d]pyrimidin-7-one [Example 573] | 180 | 820 | 260
3 | 560 | 39 | 120 | 860 | 230 | CC(C)n1c(=O)ccc2cnc(Nc3cc(Cl)cc(Cl)c3)nc21 [Example 429, 2-(3,5-Dichloro-phenylamino)-8-isopropyl-8H-pyrido[2,3-d]pyrimidin-7-one] | – | – | –
4 | 180 | 54 | 150 | 210 | 48 | CC1Nc2ccc(Nc3ncc4ccc(=O)n(C5CCCC5)c4n3)cc2C1C (stereo not shown) [Example 552, 8-Cyclopentyl-2-(2,3-dimethyl-2,3-dihydro-1H-indol-5-ylamino)-8H-pyrido[2,3-d]pyrimidin-7-one] | – | – | –
5 | 2750 | 255 | 2270 | 2800 | 865 | Cn1c(=O)ccc2cnc(Nc3ccccc3)nc21 [Example 285, 8-Methyl-2-phenylamino-81H-pyrido[2,3-d]pyrimidin-7-one] | – | – | –
6 | 290 | 61 | 510 | 470 | 410 | CCCn1c(=O)ccc2cnc(Nc3ccc4c(c3)C(C)C(C)N4)nc21 (stereo not shown) [Example 356, 2-(2,3-Dimethyl-2,3-dihydro-1H-indol-5-ylamino)-8-propyl-8H-pyrido[2,3-d]pyrimidin-7-one] | – | – | –
7 | 160 | 36 | 73 | 260 | 140 | CCC(C)n1c(=O)ccc2cnc(Nc3ccc(F)c(Cl)c3)nc21 (stereo not shown) [Example 460, 8-sec-Butyl-2-(3-chloro-4-fluoro-phenylamino)-8H-pyrido[2,3-d]pyrimidin-7-one] | – | – | –
8 | 938 | 39.1 | 69.3 | 418 | 134 | CCC(CC)n1c(=O)ccc2cnc(Nc3ccc(F)c(Cl)c3)nc21 [Example 481, 2-(3-Chloro-4-fluoro-phenylamino)-8-(1-ethyl-propyl)-8H-pyrido[2,3-d]pyrimidin-7-one] | – | – | –
9 | 338 | 145 | 72.7 | 320 | 425 | O=c1ccc2cnc(Nc3ccc(O)cc3F)nc2n1C1CCCC1 [Example 538, 8-Cyclopentyl-2-(2-fluoro-4-hydroxy-phenylamino)-8H-pyrido[2,3-d]pyrimidin-7-one] | – | – | –
10 | 150 | 440 | 1500 | 1100 | 1400 | CC(=O)Nc1cc(Nc2ncc3ccc(=O)n(C(C)C)c3n2)ccc1C [Example 440, N-[5-(8-Isopropyl-7-oxo-7,8-dihydro-pyrido[2,3-d]pyrimidin-2-ylamino)-2-methyl-phenyl]-acetamide] | – | – | –
11 | 920 | 102 | 43 | 102 | 101 | O=c1ccc2cnc(Nc3cc(Cl)c(O)c(Cl)c3)nc2n1CC1CC1 [Example 568, 8-Cyclopropylmethyl-2-(3,5-dichloro-4-hydroxy-phenylamino)-8H-pyrido[2,3-d]pyrimidin-7-one] | – | – | –
12 | 475 | 108 | 223 | 630 | 275 | CCn1c(=O)ccc2cnc(Nc3ccc4[nH]ncc4c3)nc21 [Example 286, 8-Ethyl-2-(1H-indazol-5-ylamino)-8H-pyrido[2,3-d]pyrimidin-7-one] | – | – | –
13 | 130 | 25 | 110 | 310 | 130 | CCC(C)n1c(=O)ccc2cnc(Nc3ccc(Cl)c(C)c3)nc21 (stereo not shown) [Example 456, 8-sec-Butyl-2-(4-chloro-3-methyl-phenylamino)-8H-pyrido[2,3-d]pyrimidin-7-one] | – | – | –
14 | 2000 | 290 | 450 | 650 | 620 | CCC(CC)n1c(=O)ccc2cnc(Nc3ccc(O)c(C(=O)O)c3)nc21 [Example 524, 5-[8-(1-Ethyl-propyl)-7-oxo-7,8-dihydro-pyrido[2,3-d]pyrimidin-2-ylamino]-2-hydroxy-benzoic acid] | – | – | –
15 | 920 | 14 | 50 | 310 | 63 | CCCCn1c(=O)ccc2cnc(Nc3cc(C)cc(C)c3)nc21 [Example 399, 8-Butyl-2-(3,5-dimethyl-phenylamino)-8H-pyrido[2,3-d]pyrimidin-7-one] | – | – | –
16 | 70 | 59 | 290 | 190 | 200 | Cc1ccc(Nc2ncc3ccc(=O)n(C4CCCC4)c3n2)cc1C [Example 549, 8-Cyclopentyl-2-(3,4-dimethyl-phenylamino)-8H-pyrido[2,3-d]pyrimidin-7-one] | – | – | –
17 | 150 | 33 | 140 | 310 | 47 | CCC(CC)n1c(=O)ccc2cnc(Nc3ccc(C)c(NS(C)(=O)=O)c3)nc21 [Example 519, N-{5-[8-(1-Ethyl-propyl)-7-oxo-7,8-dihydro-pyrido[2,3-d]pyrimidin-2-ylamino]-2-methyl-phenyl}-methanesulfonamide] | – | – | –
18 | 978 | 42.3 | 31.8 | 81.7 | 88.4 | CCCn1c(=O)ccc2cnc(Nc3ccc(S(N)(=O)=O)cc3)nc21 [Example 317, 4-(7-Oxo-8-propyl-7,8-dihydro-pyrido[2,3-d]pyrimidin-2-ylamino)-benzenesulfonamide] | – | – | –
19 | 670 | 260 | 340 | 1700 | 1300 | CCCn1c(=O)ccc2cnc(Nc3cc([N+](=O)[O-])ccc3F)nc21 [Example 333, 2-(2-Fluoro-5-nitro-phenylamino)-8-propyl-8H-pyrido[2,3-d]pyrimidin-7-one] | – | – | –
20 | 430 | 150 | 25 | 100 | 150 | CCCn1c(=O)ccc2cnc(Nc3ccc(F)c(C)c3)nc21 [Example 337, 2-(4-Fluoro-3-methyl-phenylamino)-8-propyl-8H-pyrido[2,3-d]pyrimidin-7-one] | – | – | –
21 | 2900 | 980 | 1600 | 1500 | 2200 | CCn1c(=O)ccc2cnc(Nc3ccc(C#N)cc3)nc21 [Example 304, 4-(8-Ethyl-7-oxo-7,8-dihydro-pyrido[2,3-d]pyrimidin-2-ylamino)-benzonitrile] | – | – | –
22 | 1300 | 292 | 860 | 880 | 1900 | CCCCn1c(=O)ccc2cnc(Nc3ccc(Cl)c(C(F)(F)F)c3)nc21 [Example 401, 8-Butyl-2-(4-chloro-3-trifluoromethyl-phenylamino)-8H-pyrido[2,3-d]pyrimidin-7-one] | – | – | –
23 | 400 | 205 | 133 | 515 | 150 | CCCCn1c(=O)ccc2cnc(Nc3ccc(NC(=O)OC(C)(C)C)cc3)nc21 [Example 381, [4-(8-Butyl-7-oxo-7,8-dihydro-pyrido[2,3-d]pyrimidin-2-ylamino)-phenyl]-carbamic acid tert-butyl ester] | – | – | –
24 | 67 | 42 | 98 | 220 | 67 | CCC(CC)n1c(=O)ccc2cnc(Nc3cc(Cl)c(N)c(Cl)c3)nc21 [Example 521, 2-(4-Amino-3,5-dichloro-phenylamino)-S-(1-ethyl-propyl)-8H-pyrido[2,3-d]pyrimidin-7-one] | – | – | –
25 | 44 | 54 | 99.3 | 260 | 260 | CC(C)n1c(=O)ccc2cnc(Nc3ccc4[nH]ccc4c3)nc21 [Example 409, 2-(1H-Indol-5-ylamino)-8-isopropyl-8H-pyrido[2,3-d]pyrimidin-7-one] | – | – | –
26 | 310 | 190 | 110 | 200 | 510 | O=c1ccc2cnc(Nc3ccc(O)c(CN4CCOCC4)c3)nc2n1C1CCCC1 [Example 550, 8-Cyclopentyl-2-(4-hydroxy-3-morpholin-4-ylmethyl-phenylamino)-8H-pyrido[2,3-d]pyrimidin-7-one] | – | – | –
27 | 285 | 108 | 80 | 160 | 128 | CCCCn1c(=O)ccc2cnc(Nc3ccc(F)cc3)nc21 [Example 387, 8-Butyl-2-(4-fluoro-phenylamino)-8H-pyrido[2,3-d]pyrimidin-7-one] | – | – | –

Row | Compound | IC50 (cdk4/D) [nM] | IC50 (Cdk5/p25) [nM] | IC50 (cdk2/cyclinE; cdk2/E IC50) [nM] | IC50 (cdk2/cyclinA; cdk2/A IC50) [nM] | IC50 (cdc2/cyclinB) [nM] | IC50 (cdk2/cyclinE; read-out: cdk2/E IC50) [nM] | IC50 (cdk2/cyclinA; read-out: cdk2/A IC50) [nM] | IC50 (cdc2/cyclinB; read-out: cdk1/B IC50) [nM]
28 | 8-Cyclopentyl-2-(2,4,6-trifluoro-phenylamino)-8H-pyrido[2,3-d]pyrimidin-7-one [Example 473] | 510 | 67 | – | – | – | 470 | 330 | 400
29 | 8-Cyclopropylmethyl-2-(1H-indazol-6-ylamino)-8H-pyrido[2,3-d]pyrimidin-7-one [Example 583] | 1300 | 105 | – | – | – | 200 | 260 | 355
